Reference: PubChem BioAssay (NCI)
“And” between values parts separate entries of the source, which are not always exact repeats. Identical values can stand only once.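 Exposure lasted 48 hours, with cells grown in 96-well plates and compounds tested at five concentrations. The concentration for 50% growth inhibition is given as GI50. TGI: concentration producing complete growth inhibition.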

Key:
Assay in all cases: NCI tumour cell line growth inhibition, 48 h
[1] = tested on: OVCAR-5 ovarian
[2] = tested on: MOLT-4 leukemia
[3] = tested on: ACHN renal
[4] = tested on: MCF7 breast
[5] = tested on: A549 NSCLC
[6] = tested on: HCT-116 colon
[7] = tested on: SNB-19 CNS
[8] = tested on: SK-OV-3 ovarian
[9] = tested on: HOP-92 NSCLC
[10] = tested on: A498 renal

| Structure (SMILES) | GI50 [1] | TGI [1] | GI50 [2] | TGI [2] | GI50 [3] | TGI [3] | GI50 [4] | TGI [4] | GI50 [5] | TGI [5] | GI50 [6] | TGI [6] | GI50 [7] | TGI [7] | GI50 [8] | TGI [8] | GI50 [9] | TGI [9] | GI50 [10] | TGI [10] |
| --- | --- | --- | --- | --- | --- | --- | --- | --- | --- | --- | --- | --- | --- | --- | --- | --- | --- | --- | --- | --- |
| CC(C)(CCN=C(N)Nc1ccccn1)c1ccc(C(F)(F)F)cc1 | 15.8 µM | 30.7 µM | 14.5 µM | 37.4 µM | 13.5 µM | 26.5 µM | 12.2 µM | 27.4 µM | 16.5 µM | 31.6 µM | 10.6 µM | 24.3 µM | 16.9 µM | 33.1 µM | 15.8 µM | 30.8 µM | 13.3 µM | 27.6 µM | 14.9 µM | 28.8 µM |
| O=C(O)C1C2C=CC(C2)C1C(=O)O (stereo not given) | > 100 µM | > 100 µM | > 100 µM | > 100 µM | > 100 µM | > 100 µM | > 100 µM | > 100 µM | > 100 µM | > 100 µM | > 100 µM | > 100 µM | > 100 µM | > 100 µM | > 100 µM | > 100 µM | > 100 µM | > 100 µM | > 100 µM | > 100 µM |
| O=S(=O)(c1ccc(Br)cc1)N1CCN(S(=O)(=O)c2ccc(Br)cc2)CC1 | – | > 100 µM | – | 26.7 µM | – | > 100 µM | – | > 100 µM | – | > 100 µM | – | > 100 µM | – | > 100 µM | – | > 100 µM | – | > 100 µM | – | > 100 µM |
| NCCCn1c2c(c3ccc([N+](=O)[O-])cc3c1=O)C(=O)c1cc(-c3ccccc3)ccc1-2 | 1.48 µM | 2.95 µM | 0.235 µM | 0.595 µM | 1.56 µM | 3.08 µM | 0.357 µM | 1.32 µM | 0.237 µM | 0.552 µM | 0.172 µM | 0.315 µM | – | – | – | – | 1.36 µM | 3.15 µM | 0.694 µM | 1.54 µM |
| NCCCCCCCCCCCn1c2c(c3ccccc3c1=O)C(=O)c1ccccc1-2 | 2.48 µM | 9.01 µM | 1.97 µM | 3.93 µM | 3.11 µM | 8.11 µM | 8.63 µM | 37.9 µM | 20 µM | 74.7 µM | – | – | 6.77 µM | 38.9 µM | 14.3 µM | 34.5 µM | 2.65 µM | 7.05 µM | 12.4 µM | 36.3 µM |
| O=C1CCCCC=C1C[N+](=O)[O-] | 21.9 µM | 41.6 µM | 11.9 µM | 31 µM | 15.6 µM | 31.2 µM | 20 µM | 55.1 µM | 38.2 µM | > 100 µM | 17 µM | 50.8 µM | 42.1 µM | > 100 µM | > 100 µM | > 100 µM | 29 µM | 51.9 µM | > 100 µM | > 100 µM |
| CN1CC[C@]2(c3cccc(O)c3)CC(=O)/C(=C/c3ccccc3)[C@H]1C2 | 4.34 µM | 16.1 µM | – | 6.96 µM | – | 7.03 µM | – | 10.4 µM | – | 11.1 µM | – | 7.29 µM | 4.75 µM | 17.4 µM | 2.81 µM | 8.73 µM | – | 7.92 µM | – | 21.1 µM |
| Cc1[nH]c(C(=O)Nc2ccccc2OC2CCNCC2)c(Cl)c1Cl | 1.28 µM | 4.32 µM | 1.31 µM | 3.73 µM | 0.995 µM | 2.05 µM | 0.882 µM | 1.68 µM | 1.22 µM | 3.35 µM | 0.837 µM | 1.59 µM | 1.25 µM | 3.44 µM | 8.46 µM | 16.1 µM | 0.702 µM | 1.79 µM | 2.71 µM | 9.47 µM |
| NC1CCC(Nc2nc(NCc3cc(Cl)ccc3O)c3ncn(C4CCCC4)c3n2)CC1 (stereo not given) | 0.242 µM | 1.16 µM | 0.133 µM | 0.492 µM | 0.183 µM | 0.527 µM | 0.104 µM | 0.318 µM | 0.193 µM | 0.713 µM | 0.0644 µM | 0.66 µM | 0.202 µM | 1.01 µM | 0.494 µM | 1.65 µM | 0.163 µM | 0.63 µM | 0.211 µM | 0.484 µM |
| c1cc(CSSCc2ccncc2)ccn1 | – | > 100 µM | – | 23.7 µM | – | > 100 µM | – | > 100 µM | – | > 100 µM | – | > 100 µM | – | > 100 µM | – | > 100 µM | – | > 100 µM | – | > 100 µM |
| COc1cc2nc(-c3ccc(Cl)cc3)cc(OCCCN3CCCC3)c2cc1OC | 1.03 µM | 13.7 µM | 1.5 µM | 3.47 µM | 1.93 µM | 8.39 µM | 1.33 µM | 3.07 µM | 1.52 µM | 12.4 µM | 0.699 µM | 10.1 µM | 3.14 µM | 14.6 µM | 2.42 µM | 15.3 µM | 0.85 µM | 5.43 µM | 2.19 µM | 5.19 µM |
| CSCC[C@H](NC(=O)[C@H](CC(C)C)NC(=O)[C@@H](Cc1ccccc1)NC(=O)CNC(=O)[C@@H](NC(=O)[C@H](C)NC(=O)[C@H](Cc1c[nH]c2ccccc12)NC(=O)[C@H](CCC(N)=O)NC(=O)[C@H](N)CC(N)=O)C(C)C)C(N)=O | – | > 12.5 µM | – | > 12.5 µM | – | > 12.5 µM | – | > 12.5 µM | – | > 12.5 µM | – | > 12.5 µM | – | > 12.5 µM | – | > 12.5 µM | – | > 12.5 µM | – | > 12.5 µM |
| N#CC1(Nc2ccc(-c3ccc(NC4(C#N)CCCC4)cc3)cc2)CCCC1 | – | > 100 µM | – | > 100 µM | – | > 100 µM | – | > 100 µM | – | > 100 µM | – | > 100 µM | – | > 100 µM | – | > 100 µM | – | > 100 µM | – | > 100 µM |
| CSc1ccc2c(c1)N(CCC1CCCCN1C)c1ccccc1S2 (stereo not given) | 10.1 µM and 3.83 µM | 22 µM and 13.2 µM | 3.61 µM and 3.13 µM | 13.6 µM and 10 µM | 4.39 µM and 3.75 µM | 15.2 µM and 13.5 µM | 5.63 µM and 2.2 µM | 21.7 µM and 4.48 µM | 10.9 µM and 2.65 µM | 24.1 µM and 10.3 µM | 5.58 µM and 3.3 µM | 19 µM and 12.9 µM | – | – | 13 µM and 13.8 µM | 27.5 µM and 29 µM | 2.11 µM | 8.51 µM | 4.99 µM and 13.2 µM | 22.2 µM and 28.7 µM |
